Data published in the supplement of paper PMC10307832.

Tests used:
Assay in all cases: relative viability (nuclei count vs DMSO), 5 days (fraction); higher = more cells survive
NCI-H1993 = test system: NCI-H1993
Outline: (§1)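 Lung cancer cell lines were pin-tool dosed in 1536-well plates on the day after seeding, with either a lone drug or a fixed anchor-drug dose plus five library-drug doses (not always all listed) in √10 steps. Nuclei were counted on 4× images after 5 days. Relative viability is the ratio of treated-well to vehicle-well nuclei counts, with each value a median of duplicate plates.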

NCI-H2009 = test system: NCI-H2009
Outline: as §1

NCI-H2170 = test system: NCI-H2170
Outline: as §1

NCI-H2228 = test system: NCI-H2228
Outline: as §1

NCI-H2342 = test system: NCI-H2342
Outline: as §1

NCI-H2347 = test system: NCI-H2347
Outline: as §1

NCI-H358 = test system: NCI-H358
Outline: as §1

NCI-H647 = test system: NCI-H647
Outline: as §1

NCI-H838 = test system: NCI-H838
Outline: as §1

PC-14 = test system: PC-14
Outline: as §1

SK-MES-1 = test system: SK-MES-1
Outline: as §1

UMC-11 = test system: UMC-11
Outline: as §1

`NC(=O)Nc1cc(-c2cccc(F)c2)sc1C(=O)N[C@H]1CCCNC1` [AZD7762] + CCNC(=O)c1noc(-c2cc(C(C)C)c(O)cc2O)c1-c1ccc(CN2CCOCC2)cc1 [Luminespib] (partner 0.01 µM) showed a relative viability (NCI-H1993; first compound 0.1 µM) of 0.81, a relative viability (NCI-H1993; first compound 0.3162 µM) of 0.971 and a relative viability (NCI-H1993; first compound 1 µM) of 0.678. For the same compound, the relative viability (NCI-H2009; first compound 0.01 µM) was 1.06, the relative viability (NCI-H2009; first compound 0.03162 µM) was 0.975 and the relative viability (NCI-H2009; first compound 0.1 µM) was 1.12. For the same compound, the relative viability (NCI-H2009; first compound 0.3162 µM) was 0.935, the relative viability (NCI-H2009; first compound 1 µM) was 0.663 and the relative viability (NCI-H2170; first compound 0.01 µM) was 0.644. It also gave a relative viability (NCI-H2170; first compound 0.03162 µM) of 0.666, a relative viability (NCI-H2170; first compound 0.1 µM) of 0.71 and a relative viability (NCI-H2170; first compound 0.3162 µM) of 0.833. The relative viability (NCI-H2170; first compound 1 µM) was 0.724, the relative viability (NCI-H2228; first compound 0.01 µM) was 0.139 and the relative viability (NCI-H2228; first compound 0.03162 µM) was 0.162. The relative viability (NCI-H2228; first compound 0.1 µM) was 0.165, the relative viability (NCI-H2228; first compound 0.3162 µM) was 0.133 and the relative viability (NCI-H2228; first compound 1 µM) was 0.125. For the same compound, the relative viability (NCI-H2342; first compound 0.01 µM) was 0.69, the relative viability (NCI-H2342; first compound 0.03162 µM) was 0.696 and the relative viability (NCI-H2342; first compound 0.1 µM) was 0.731. The relative viability (NCI-H2342; first compound 0.3162 µM) was 0.819, the relative viability (NCI-H2342; first compound 1 µM) was 0.676 and the relative viability (NCI-H2347; first compound 0.01 µM) was 0.417. The relative viability (NCI-H2347; first compound 0.03162 µM) was 0.573, the relative viability (NCI-H2347; first compound 0.1 µM) was 0.715 and the relative viability (NCI-H2347; first compound 0.3162 µM) was 0.396. It also gave a relative viability (NCI-H2347; first compound 1 µM) of 0.63, a relative viability (NCI-H358; first compound 0.01 µM) of 0.275 and a relative viability (NCI-H358; first compound 0.03162 µM) of 0.292. The relative viability (NCI-H358; first compound 0.1 µM) was 0.307, the relative viability (NCI-H358; first compound 0.3162 µM) was 0.545 and the relative viability (NCI-H358; first compound 1 µM) was 0.142. For the same compound, the relative viability (NCI-H647; first compound 0.01 µM) was 0.118, the relative viability (NCI-H647; first compound 0.03162 µM) was 0.163 and the relative viability (NCI-H647; first compound 0.1 µM) was 0.0996. For the same compound, the relative viability (NCI-H647; first compound 0.3162 µM) was 0.119, the relative viability (NCI-H647; first compound 1 µM) was 0.101 and the relative viability (NCI-H838; first compound 0.01 µM) was 0.277. For the same compound, the relative viability (NCI-H838; first compound 0.03162 µM) was 0.336, the relative viability (NCI-H838; first compound 0.1 µM) was 0.199 and the relative viability (NCI-H838; first compound 0.3162 µM) was 0.157. It also gave a relative viability (NCI-H838; first compound 1 µM) of 0.174, a relative viability (PC-14; first compound 0.01 µM) of 0.162 and a relative viability (PC-14; first compound 0.03162 µM) of 0.199. For the same compound, the relative viability (PC-14; first compound 0.1 µM) was 0.16, the relative viability (PC-14; first compound 0.3162 µM) was 0.118 and the relative viability (PC-14; first compound 1 µM) was 0.136. For the same compound, the relative viability (SK-MES-1; first compound 0.01 µM) was 1.08, the relative viability (SK-MES-1; first compound 0.03162 µM) was 0.715 and the relative viability (SK-MES-1; first compound 0.1 µM) was 0.38. The relative viability (SK-MES-1; first compound 0.3162 µM) was 0.19, the relative viability (SK-MES-1; first compound 1 µM) was 0.175 and the relative viability (UMC-11; first compound 0.01 µM) was 1.14. For the same compound, the relative viability (UMC-11; first compound 0.03162 µM) was 0.999, the relative viability (UMC-11; first compound 0.1 µM) was 1.09 and the relative viability (UMC-11; first compound 0.3162 µM) was 0.593. The relative viability (UMC-11; first compound 1 µM) was 0.384.
